Results: the NIST ThermoML archive (doi:10.1016/j.tca.2013.12.016)
± gives the expanded uncertainty stated by the source.

Test: mn = molality of the nth substance listed, in mol/kg
Conditions: 101 kPa, Liquid; for speed of sound: Linear variable-path acoustic interferometer; for mass density: Vibrating tube method

`CCOC(C)=O` [ethyl acetate] + CO showed a speed of sound (308.15 K, m2 = 0.0111) of 1059 ± 5 m/s, a speed of sound (308.15 K, m2 = 0.0223) of 1062 ± 5 m/s and a speed of sound (308.15 K, m2 = 0.0495) of 1065 ± 5 m/s. For the same compound, the speed of sound (308.15 K, m2 = 0.1474) was 1068 ± 5 m/s, the speed of sound (308.15 K, m2 = 0.2878) was 1071 ± 5 m/s and the speed of sound (308.15 K, m2 = 0.3556) was 1074 ± 5 m/s. For the same compound, the speed of sound (308.15 K, m2 = 0.4905) was 1077 ± 5 m/s, the speed of sound (308.15 K, m2 = 0.7268) was 1080 ± 5 m/s and the speed of sound (308.15 K, m2 = 0.974) was 1089 ± 5 m/s. The speed of sound (308.15 K, m2 = 1.409) was 1092 ± 5 m/s, the speed of sound (308.15 K, m2 = 2.445) was 1095 ± 5 m/s and the speed of sound (308.15 K, m2 = 3.001) was 1098 ± 5 m/s. It also gave a mass density (308.15 K, m2 = 0.0111) of 883 ± 2 kg/m3, a mass density (308.15 K, m2 = 0.0223) of 882.9 ± 2 kg/m3 and a mass density (308.15 K, m2 = 0.0495) of 882.8 ± 2 kg/m3. For the same compound, the mass density (308.15 K, m2 = 0.1474) was 882.7 ± 2 kg/m3, the mass density (308.15 K, m2 = 0.2878) was 882.4 ± 2 kg/m3 and the mass density (308.15 K, m2 = 0.3556) was 882.1 ± 2 kg/m3. It also gave a mass density (308.15 K, m2 = 0.4905) of 881.6 ± 2 kg/m3, a mass density (308.15 K, m2 = 0.7268) of 880.6 ± 2 kg/m3 and a mass density (308.15 K, m2 = 0.974) of 879.1 ± 2 kg/m3. For the same compound, the mass density (308.15 K, m2 = 1.409) was 877 ± 2 kg/m3, the mass density (308.15 K, m2 = 2.445) was 873.8 ± 2 kg/m3 and the mass density (308.15 K, m2 = 3.001) was 873.1 ± 2 kg/m3. For the same compound, the speed of sound (313.15 K, m2 = 0.0111) was 1038 ± 5 m/s, the speed of sound (313.15 K, m2 = 0.0223) was 1041 ± 5 m/s and the speed of sound (313.15 K, m2 = 0.0495) was 1044 ± 5 m/s. The speed of sound (313.15 K, m2 = 0.1474) was 1047 ± 5 m/s, the speed of sound (313.15 K, m2 = 0.2878) was 1050 ± 5 m/s and the speed of sound (313.15 K, m2 = 0.3556) was 1053 ± 5 m/s. The speed of sound (313.15 K, m2 = 0.4905) was 1056 ± 5 m/s, the speed of sound (313.15 K, m2 = 0.7268) was 1059 ± 5 m/s and the speed of sound (313.15 K, m2 = 0.974) was 1062 ± 5 m/s. It also gave a speed of sound (313.15 K, m2 = 1.409) of 1065 ± 5 m/s, a speed of sound (313.15 K, m2 = 2.445) of 1068 ± 5 m/s and a speed of sound (313.15 K, m2 = 3.001) of 1071 ± 5 m/s. For the same compound, the mass density (313.15 K, m2 = 0.0111) was 877.1 ± 2 kg/m3, the mass density (313.15 K, m2 = 0.0223) was 877 ± 2 kg/m3 and the mass density (313.15 K, m2 = 0.0495) was 876.9 ± 2 kg/m3. For the same compound, the mass density (313.15 K, m2 = 0.1474) was 876.8 ± 2 kg/m3, the mass density (313.15 K, m2 = 0.2878) was 876.4 ± 2 kg/m3 and the mass density (313.15 K, m2 = 0.3556) was 876.2 ± 2 kg/m3. It also gave a mass density (313.15 K, m2 = 0.4905) of 875.8 ± 2 kg/m3, a mass density (313.15 K, m2 = 0.7268) of 874.8 ± 2 kg/m3 and a mass density (313.15 K, m2 = 0.974) of 873.8 ± 2 kg/m3. It also gave a mass density (313.15 K, m2 = 1.409) of 871.6 ± 2 kg/m3, a mass density (313.15 K, m2 = 2.445) of 868.4 ± 2 kg/m3 and a mass density (313.15 K, m2 = 3.001) of 867.9 ± 2 kg/m3.
